According to patent US20210322346A1, “CHEMICALLY MODIFIED CURCUMINS FOR USE IN THE PRODUCTION OF LIPOXINS” (The Research Foundation for The State University of New York, priority 2015, published 2021):

Key:
[1] = tested on: S. aureus-infected hTG SP-B mice; assay: Mortality in S. aureus pneumonia in hTG SP-B mice; assay type: in vivo, mouse; conditions: 50 mg/kg daily
Method: S. aureus-induced pneumonia model: Pilot experiments were performed to establish the S. aureus Xen36 pneumonia model using different doses of bacteria to infect mouse lung. […] Therefore, direct intratracheal inoculation of bioluminescent S. aureus Xen36 at a dose of 5×10^8/50 μl was used to infect mice in all subsequent experiment (Farnsworth, C. W. et al. 2015; Schriever, M. P. et al. 2011). In brief, hTG SP-B mice between 8 and 12 weeks old were anesthetized using intraperitoneal ketamine/xylazine (90 mg/kg ketamine, 10 mg/kg xylazine) injection. A 0.3-cm mid-line neck incision was made to expose the trachea. In the sham group, 50 μl of sterile vehicle was injected into the trachea by the same method. After infection, bio-luminescence signal was observed and quantified by an in vivo imaging system. (Xenogen-200 series, Caliper Life Sciences, Hopkinton, Mass.). Buprenorphine (0.05 mg/kg body weight) was injected for postoperative analgesia every 8-12 hrs. Mice were returned to their cages in a temperature-controlled room. (22. ° C.) with 12-h light and dark cycles and monitored every 4 h. Mice were anesthetized with isoflurane (2%) at several time points after infection (0 h, 12 h, 24 h, 28 h, 32 h, and 48 h) (Pribaz, J. R. et al, 2012; Guo, Y, et al, 2013). At 48 h after S. aureus infection, nice were sacrificed under anesthesia. […]

[2] = tested on: Lipoxin A4; assay: Lipoxin A4 ELISA in macrophage conditioned media, CFE and serum of diabetic rats; assay type: in vivo, rat; conditions: STZ-diabetic rats, 30 mg/kg oral once per day for 3 weeks
Method: (§1) Adult rats were made diabetic by I.V. injection of streptozotocin; non-diabetic rats served as controls (n=6 rats per group; all groups). Half of the diabetics (blood glucose >500 mg/dl) were orally administered CMC2.24 (30 mg/kg) once per day for 3 weeks; untreated diabetics (D) and N rats received vehicle alone. PEs were collected at time=0 (ie, before thioglycollate injection into peritoneal cavity). Resident macrophages were isolated from PEs, then incubated in cell culture for 13 hours (370 C; 95% air/5% CO2 atmosphere). Lipoxin A4 levels were measured by ELISA (a) in cell culture serum-free conditioned media; (b) in the cell-free exudates (CFEs); and (c) in serum.

[3] = Solubility; assay type: physicochemical
[4] = tested on: Lipoxin B4; assay: Lipoxin B4 ELISA in macrophage conditioned media, CFE and serum of diabetic rats; assay type: in vivo, rat; conditions: STZ-diabetic rats, 30 mg/kg oral once per day for 3 weeks
Method: as §1, with “18” for “13”, “B4” for “A4”

[5] = tested on: elastase/LPS-treated COPD mice; assay: Morphometry: mean linear intercept (chord length) in COPD mice; assay type: in vivo, mouse; conditions: oral gavage for seven days, control 33, COPD 54
Method: Elastase and LPS exposure: A total of 180 male and 180 female WT mice (8-12 weeks old) were used for all experiments. Experiments were performed in triplicate for each group of age- and gender-matched mice. Animals were exposed by the intranasal route to 10 μl saline containing 1.2 units of porcine pancreatic elastase (Elastin Products, Owensville, Mo.) on Tuesday and 10 μl saline containing 7 μg (−70 endotoxin units) of LPS from Escherichia coli O26:B6 (Sigma-Aldrich, St. Louis, Mo.) on Friday of each week for four consecutive weeks.
3 mg of CMC2.24 powder were dissolved in 1 mL suspension of 2% Carboxymethyl cellulose vehicle for the daily oral administration of CMC2.24 (40 mg/kg). Vehicle alone was administered to the control group. Both CMC2.24 and vehicle control were administered once daily over the 7-day protocol by gavage (Zhang, Y. et al. 2010; Elburki, M. S. et al. 2014).
Morphometry—Air Space Enlargement: In an effort to quantitate alveolar air space enlargement, the Mean Linear Intercept (MLI) was implemented. […] Afterwards, seven equally spaced lines were then drawn within the guard zone, and directly measured by manual use of a ruler. Starting from the left, the line was scanned for any intersections with the alveolar walls and measured until the following intersection with the alveolar surface on the right. […]

[6] = tested on: IL-1β relative to lipoxin A4; assay: Experiment A: IL-1β and lipoxin A4 secreted by macrophages from treated diabetic rats; assay type: in vivo, rat; conditions: 30 mg/kg oral once per day for 21 days, compared to untreated diabetics
Method: In an in vivo experiment, three groups of adult male rats were established including non-diabetic controls (NDC group; n=6 rats/group); rats that were made diabetic and severely hyperglycemic by STZ injection (D+vehicle group; n=6 rats/group), and a 3rd group of rats (n=6 rats/group) in which the diabetics were orally administered CMC2.24 (30 mg/kg body weight) once per day for 21 days. At the end of the protocol, the rats were sacrificed and the peritoneal cells were collected by washing with cold 15 ml phosphate buffered saline/EDTA, The macrophages were harvested from the peritoneal wash from each rat, after 2 hours of adherence to culture plates (sterile conditions), the cells were counted and then incubated for 18 h at 37° C. in an atmosphere of 95% air/5% CO2. The conditioned media was then collected and analyzed for the resolvin, lipoxin A4, and for two inflammatory cytokines, IL-1β and IL-6. The data is expressed as a ratio of […] (pg/ml) relative to resolvin (ng/ml) secreted by the macrophages from the three experimental groups (FIG. 45A).

[7] = tested on: IL-6 relative to lipoxin A4; assay: Experiment B: IL-6/lipoxin A4 ratio in LPS-exposed macrophages in culture; assay type: cell-based, rat; conditions: LPS (100 ng/ml)-exposed macrophages, CMC2.24 5 μM
Method: (§2) In the second experiment, macrophages (chronic inflammatory cells), were collected and counted from the peritoneal washes of the six non-diabetic control rats. These cells were then pooled and incubated under different in vitro conditions including: group 1, control Møs; group 2, Møs incubated with lipopolysaccharide (LPS)/endotoxin at 100 ng/ml, final concentration, added to the culture media; group 3, Møs exposed to LPS but treated with CMC2.24 at a final concentration of 2 μM; and group 4, like group 3 except that CMC2.24 was increased to 5 μM (note that in this cell culture experiment, sufficient IL-6 was secreted by the LPS-exposed Møs unlike Experiment A, above).

[8] = tested on: IL-1β relative to lipoxin A4; assay: Experiment B: IL-1β/lipoxin A4 ratio in LPS-exposed macrophages in culture; assay type: cell-based, rat; conditions: LPS (100 ng/ml)-exposed macrophages, CMC2.24 5 μM
Method: as §2

[9] = tested on: Human lung epithelial cell line (A549); assay: Cell viability by CCK-8 assay in A549 cells; assay type: cell-based; conditions: 1 to 80 μM, 24 h
Method: (§3) Human lung epithelial cell line (A549) and primary alveolar macrophage cell culture: Human lung epithelial cell line (A549, ATCC #CCL-185) was purchased from ATCC (Manassas, Va.); and primary alveolar macrophages were prepared from healthy adult animals (swine). A549 cells and primary alveolar macrophages were cultured in RPMI Media 1640 medium supplemented with 10% (v/v) FBS, 1% (v/v) L-glutamine (200 mM) and 1% (v/v) Antibiotic-Antimycotic antibiotics at 37° C. in a humidified 5% CO2 incubator.
(§4) CMC 2.24 treatment and PM2.5 exposure: The cells were subcultured when cells were grown to about 70% confluency. […]
(§5) Analysis of cell viability by CCK-8 assay: In order to study the effect of CMC2.24 in A549 cells and primary alveolar macrophages after PM2.5 exposure, cell viability was determined using Cell Counting Kit (CCK)-8 kit (Sigma-Aldrich, MO, USA) according to the manufacturer's instructions, A549 cells (0.5×10^4/well) and primary macrophages (1×10^4/well) were cultured in 96-well plates for 24 h and 6 h, respectively; the cells were then exposed to various concentrations of CMC 2.24 (i.e. 0, 1, 5, 10, 20, 30, 40, and 80 μM of CMC 2.24) in the presence or absence of 100 μg/ml PM2.5 in the media for 24 h. […] Then optical density value was measured at 450 nm using a microplate reader (Multiskan Ascent, Thermo Lab systems). […]

[10] = tested on: primary alveolar macrophages; assay: Cell viability by CCK-8 assay in primary alveolar macrophages; assay type: cell-based; conditions: 1 to 80 μM, 24 h
Method: as §3, §4, §5

[11] = cell and tissue culture, in vivo studies; cited from earlier work
[12] = rats with pathologically excessive MMPs, doses as high as 500 mg/kg of body weight; cited from earlier work
[13] = cited from earlier work

O=C(/C=C/c1ccc(O)cc1)C(C(=O)/C=C/c1ccc(O)cc1)C(=O)Nc1ccccc1 [CMC2.24]
mortality rate ([1]; infected SP-B-C mice, control 76%, p<0.05): 50%
mortality rate ([1]; infected SP-B-T mice, control 33%): 32%
increase of Lipoxin A4 in rat serum [2]: 15.5%
increase of Lipoxin A4 in resident peritoneal cell-free exudates [2]: 80.6%
increase of Lipoxin A4 secretion by resident peritoneal macrophages ([2]; vs untreated diabetics): 12.7%
solubility relative to CMC2.5 [3]: improved solubility
increase of Lipoxin B4 secretion by resident peritoneal macrophages [4]: 12.7%
average chord length (mean linear intercept) [5]: 35 µm
reduction of ratio IL-1β relative to lipoxin A4 secreted by macrophages [6]: 85.3%
reduction of IL-6/lipoxin A4 ratio [7]: 86%
reduction of IL-1β/lipoxin A4 ratio [8]: 93.8%
cell viability (CCK-8), compound alone [9]: did not influence cell viability
cell viability (CCK-8), compound alone [10]: did not influence cell viability
toxicity compared to the parent compound [11]: even less toxicity
toxicity on oral gavage [12]: no evidence of toxicity
solubility relative to curcumin [13]: improved solubility
